# Patent US8232273B2, “Heterocyclic compounds and methods of use” (Genentech, Inc., priority 2008, dated 2012)
# Where two headings read alike, the source gives them in different places.
# What was measured:
# Bcl-xL (GST-Bcl-xL) [1] = biological target: T1, Bcl-xL (GST-Bcl-xL) (Homo sapiens, UniProt Q07817); assay: TR-FRET binding assay, competition with F-Bak for the Bcl-xL binding site
# Bcl-xL (GST-Bcl-xL) [2] = biological target: T1, Bcl-xL (GST-Bcl-xL); assay: AlphaScreen Bcl-xL binding assay, competition with biotinylated Bim peptide; set-up: made in house; details: values listed in the order of Table 1; read-out: Alphascreen results (IC50) against the Bcl-xL protein
# Excerpt: The measurement of competition of compounds of the invention with Bim26-mer for a Bcl-2 family protein binding site using an Alpha Screen Bcl-xL binding assay:
# The BH3 proteins AlphaScreen™ assay was used to identify active small molecules Bcl-2 family protein screen, e.g., Bcl-xL, hmMcl-1 screen.
# The beads come in close proximity when the protein and the peptides interact. Donor beads contain a photosensitiser that converts oxygen to an excited form of O2 at an excitation of 680 nm. Energy is transformed from the singlet oxygen and reacts with chemiluminescers on the acceptor bead, resulting in light emission at 520-620 nm. […] With this information, the IC50 of each compound was calculated
# GST-Bcl-xL, GST-hmMcl-1 and biotinylated GST proteins were prepared in-house and were stored as stock solutions at −80° C. The biotinylated-Bak, and biotinylated-Bim peptides were purchased from Auspep and were stored as 500 μM stock solutions in 100% DMSO at −80° C. […] DMSO was purchased from AnalaR.
# Compounds of the invention were prepared as 10 mM stocks with 100% DMSO on the day prior to performing the assay. […] To achieve a final compound concentration of 1 μM, in a separate matrical plate, 28 μL of 100% DMSO and 2 μL of 10 mM compound was added to a well, mixed well, 2 μL of this solution was taken and added to 38 μL of 100% DMSO. 20 μL of this solution was added to the test matrical plate. Several control compounds were included in the test plates. For the control wells 15 μL 100% DMSO only was added to the appropriate wells of each plate. The compound plates were then serially diluted 2 fold using the MiniTrak. Once titrations were complete, the compound plate was immediately covered with a foil seal to prevent evaporation.
# The assay and bead buffers were prepared fresh. Each titrated compound plate was assayed in duplicate. The following volumes were sufficient to run 12 Proxiplates (4 assay plates run in duplicate in each of Bclxl, hmMcl and counter assays)
# Protein and Peptide Preparation; and Assay Performance • 1. The assay and bead buffers were used to prepare the acceptor and donor solutions. ALPHASCREEN™ beads are light sensitive and therefore prepared in a darkened room. 2.5 μL of beads were added per 1 mL of buffer. • 2. The volume of protein or peptide to add was calculated using the following formula:
# V2=Volume of stock protein/Peptide to add to Acceptor/Donor solution • 3. The assay components were prepared as separate Acceptor and Donor Solutions. The Acceptor Solution contained Acceptor beads and target protein, while the Donor Solution contained Donor beads and biotinylated peptide.
# • 4. After the solutions were prepared, they were left to incubate for 30 minutes at room temperature to allow the beads to bind to the protein and the peptide. • 5. 50 μL of Bcl-xL solution, 50 μL of hmMcl-1 solution and 50 μL of biotinylated-GST were added into separate deep wells on an assay plate. A control 50 μL Assay/Bead buffer was added separate well plates (no protein). • 6. 50 μL of Bim solution and 50 μL of Bak solution were added into separate deep well plates. • 7. Transfer 0.3 μL it of sample from the compound plate into each assay plate. • 8. Incubated for 30 mins at RT, then add 5 μL of the Donor solution. After addition of the Donor solution, tapped plates gently and sealed individually with adhesive film. • 9.
# The percent inhibition was calculated using the following equation:
# [formula] • x=RFU obtained after compound treatment • μ^−=RFU obtained for the negative controls (no protein controls) • μ^+=RFU obtained for the positive controls (DMSO vehicle controls)
# [3] = values listed in the order of Table 1, read-out: TR-FRET assay results (Ki), Bcl-xL
# T1 sequence (Q07817 whole entry, species assumed): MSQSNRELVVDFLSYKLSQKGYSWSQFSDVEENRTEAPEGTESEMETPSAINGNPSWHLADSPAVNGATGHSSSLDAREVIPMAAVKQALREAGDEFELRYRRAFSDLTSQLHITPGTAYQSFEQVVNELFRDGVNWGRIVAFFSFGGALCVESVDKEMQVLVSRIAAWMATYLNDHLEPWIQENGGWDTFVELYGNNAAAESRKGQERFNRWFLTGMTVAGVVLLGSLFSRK
Compound,Ki (Bcl-xL (GST-Bcl-xL) [1]; [3]) [nM],IC50 (Bcl-xL (GST-Bcl-xL) [2]) [nM],Ki (Bcl-xL (GST-Bcl-xL) [1]; with 1% human serum (HS)) [nM]
"O=C(Nc1nc2ccccc2s1)c1cccc2c1CN(c1nc(C(=O)O)c(CCCOc3ccc4c5c3CCCN5CCC4)s1)CC2 [Example 27, 2-(8-(benzo[d]thiazol-2-ylcarbamoyl)-3,4-dihydroisoquinolin-2(1H)-yl)-5-(3-(1,2,3,5,6,7-hexahydropyrido[3,2,1-ij]quinolin-8-yloxy)propyl)thiazole-4-carboxylic acid]",1,7,–
"O=C(Nc1nc2ccccc2s1)c1cccc2c1CN(c1nc(C(=O)O)c(CCCn3ccc4cccnc43)s1)CC2 [Example 17, 5-(3-(1H-pyrrolo[2,3-b]pyridin-1-yl)propyl)-2-(8-(benzo[d]thiazol-2-ylcarbamoyl)-3,4-dihydroisoquinolin-2(1H)-yl)thiazole-4-carboxylic acid]",4,20,–
"O=C(Nc1nc2ccccc2s1)c1cccc2c1CN(c1nc(C(=O)O)c(CCCOc3ccc(-n4cccn4)cc3)s1)CC2 [Example 48, 5-(3-(4-(1H-pyrazol-1-yl)phenoxy)propyl)-2-(8-(benzo[d]thiazol-2-ylcarbamoyl)-3,4-dihydroisoquinolin-2(1H)-yl)thiazole-4-carboxylic acid]",0.05,0.3,–
"N#CC1Cc2cc(OCCCc3sc(N4CCc5cccc(C(=O)Nc6nc7ccccc7s6)c5C4)nc3C(=O)O)ccc21 (centres unmarked) [Example 25, 2-(8-(benzo[d]thiazol-2-ylcarbamoyl)-3,4-dihydroisoquinolin-2(1H)-yl)-5-(3-(1-cyano-1,2-dihydrocyclobutabenzen-4-yloxy)propyl)thiazole-4-carboxylic acid]",0.3,0.9,–
"N#Cc1c(-c2ccc(O)cc2)n[nH]c1NCCCc1sc(N2CCc3cccc(C(=O)Nc4nc5ccccc5s4)c3C2)nc1C(=O)O [Example 32, 2-(8-(benzo[d]thiazol-2-ylcarbamoyl)-3,4-dihydroisoquinolin-2(1H)-yl)-5-(3-(4-cyano-3-(4-hydroxyphenyl)-1H-pyrazol-5-ylamino)propyl)thiazole-4-carboxylic acid]",17,50,–
"CN1CCC(Nc2ccc(OCCCc3ccc(N4CCc5cccc(C(=O)Nc6nc7ccccc7s6)c5C4)nc3C(=O)O)cc2)CC1 [Example 104, 6-(8-(Benzo[d]thiazol-2-ylcarbamoyl)-3,4-dihydroisoquinolin-2(1H)-yl)-3-(3-(4-(1-methylpiperidin-4-ylamino)phenoxy)propyl)picolinic acid]",1,9.6,–
"O=C(Nc1nc2ccccc2s1)c1cccc2c1CN(c1nc(C(=O)O)c(CCCOc3ccc(OCCN4CCCC4)cc3)s1)CC2 [Example 114, 2-(8-(benzo[d]thiazol-2-ylcarbamoyl)-3,4-dihydroisoquinolin-2(1H)-yl)-5-(3-(4-(2-(pyrrolidin-1-yl)ethoxy)phenoxy)propyl)thiazole-4-carboxylic acid]",0.04,0.14,–
"CN(C)CC#Cc1ccc(OCCCc2ccc(N3CCc4cccc(C(=O)Nc5nc6ccccc6s5)c4C3)nc2C(=O)O)cc1 [Compound 133, 6-(8-(benzo[d]thiazol-2-ylcarbamoyl)-3,4-dihydroisoquinolin-2(1H)-yl)-3-(3-(4-(3-(dimethylamino)prop-1-ynyl)phenoxy)propyl)picolinic acid]",0.023,1.2,–
"O=C(Nc1nc2ccccc2s1)c1cccc2c1CN(c1nc(C(=O)O)c(CCCn3cccn3)s1)CC2 [Example 7, 5-(3-(1H-pyrazol-1-yl)propyl)-2-(8-(benzo[d]thiazol-2-ylcarbamoyl)-3,4-dihydroisoquinolin-2(1H)-yl)thiazole-4-carboxylic acid]",7,25,–
"O=C(O)c1csc(N2CCc3cccc(C(=O)Nc4nc5ccccc5s4)c3C2)n1 [Example 1, 2-(8-(Benzo[d]thiazol-2-ylcarbamoyl)-3,4-dihydroisoquinolin-2(1H)-yl)thiazole-4-carboxylic acid]",77,100,–
"CN(C)CC#Cc1ccc(OCCCc2sc(N3CCc4cccc(C(=O)Nc5nc6ccccc6s5)c4C3)nc2C(=O)O)c(F)c1 [Example 116, 2-(8-(benzo[d]thiazol-2-ylcarbamoyl)-3,4-dihydroisoquinolin-2(1H)-yl)-5-(3-(4-(3-(dimethylamino)prop-1-ynyl)-2-fluorophenoxy)propyl)thiazole-4-carboxylic acid]",0.004,0.2,–
"Nc1ccc(OCCCc2sc(N3CCc4cccc(C(=O)Nc5nc6ccccc6s5)c4C3)nc2C(=O)O)cc1 [Example 6, 5-(3-(4-aminophenoxy)propyl)-2-(8-(benzo[d]thiazol-2-ylcarbamoyl)-3,4-dihydroisoquinolin-2(1H)-yl)thiazole-4-carboxylic acid]",0.2,2,–
"CN(C)CCCc1ccc(OCCCc2sc(N3CCc4cccc(C(=O)Nc5nc6ccccc6s5)c4C3)nc2C(=O)O)c(F)c1 [Example 103, 2-(8-(benzo[d]thiazol-2-ylcarbamoyl)-3,4-dihydroisoquinolin-2(1H)-yl)-5-(3-(4-(3-(dimethylamino)propyl)-2-fluorophenoxy)propyl)thiazole-4-carboxylic acid]",–,0.4,0.006
"CCCN(CCc1ccc(OCCCc2sc(N3CCc4cccc(C(=O)Nc5nc6ccccc6s5)c4C3)nc2C(=O)O)cc1)CC1CCCc2c1ccc(OC)c2OC (centres unmarked) [Example 28, 2-(8-(benzo[d]thiazol-2-ylcarbamoyl)-3,4-dihydroisoquinolin-2(1H)-yl)-5-(3-(4-(2-(((5,6-dimethoxy-1,2,3,4-tetrahydronaphthalen-1-yl)methyl)(propyl)amino)ethyl)phenoxy)propyl)thiazole-4-carboxylic acid]",1,8,–
O=C(Nc1nc2ccccc2s1)c1cccc2c1CN(c1ccc(CCCOc3ccnc(Cl)c3)c(C(=O)O)n1)CC2 [Example 109],0.6,10.6,–
"CN1CCN(c2cccc(OCCCc3ccc(N4CCc5cccc(C(=O)Nc6nc7ccccc7s6)c5C4)nc3C(=O)O)c2)CC1 [Example 105, 6-(8-(benzo[d]thiazol-2-ylcarbamoyl)-3,4-dihydroisoquinolin-2(1H)-yl)-3-(3-(3-(4-methylpiperazin-1-yl)phenoxy)propyl)picolinic acid]",0.3,2.2,–
"CN(C)CCOc1cnc(-c2ccc(OCCCc3ccc(N4CCc5cccc(C(=O)Nc6nc7ccccc7s6)c5C4)nc3C(=O)O)cc2)nc1 [Example 112, 6-(8-(benzo[d]thiazol-2-ylcarbamoyl)-3,4-dihydroisoquinolin-2(1H)-yl)-3-(3-(4-(5-(2-(dimethylamino)ethoxy)pyrimidin-2-yl)phenoxy)propyl)picolinic acid]",0.2,0.45,–
"O=C(Nc1nc2ccccc2s1)c1cccc2c1CN(c1nc(C(=O)O)c(CCCOc3ccncc3)s1)CC2 [Example 10, 2-(8-(benzo[d]thiazol-2-ylcarbamoyl)-3,4-dihydroisoquinolin-2(1H)-yl)-5-(3-(pyridin-4-yloxy)propyl)thiazole-4-carboxylic acid]",0.1,1,–
"N#Cc1c(-c2ccc(OCc3sc(N4CCc5cccc(C(=O)Nc6nc7ccccc7s6)c5C4)nc3C(=O)O)cc2)n[nH]c1N [Example 45, 5-((4-(5-amino-4-cyano-1H-pyrazol-3-yl)phenoxy)methyl)-2-(8-(benzo[d]thiazol-2-ylcarbamoyl)-3,4-dihydroisoquinolin-2(1H)-yl)thiazole-4-carboxylic acid]",1,4,–
